Assay results taken from PubChem BioAssay AID1963838 (Molecular Pharmacology Branch, DTP, NCI, 2024).

System: 855422-203-R-J1-PDC complex spheroid viability
Experiment: Anticancer human tumor 855422-203-R-J1-PDC patient-derived bladder carcinoma cell line growth inhibition [POLQ]
Details: for IC50: curve of first compound; for viability, T/C: stronger effect = lower value
How it was run: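 Growth inhibition in 3D: complex spheroids (tumor PDC, HUVEC, MSC) treated with POLQ inhibitor combinations; where Cmax unknown, highest tested concentration 10 microM, except SN-38 at 1 microM.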

[1] = second compound 0.0316 µM, first compound 0.00316 µM
[2] = second compound 0.0316 µM, first compound 0.01 µM
[3] = second compound 0.0316 µM, first compound 0.0316 µM
[4] = second compound 0.0316 µM, first compound 0.1 µM
[5] = second compound 0.1 µM, first compound 0.00316 µM
[6] = second compound 0.1 µM, first compound 0.01 µM
[7] = second compound 0.1 µM, first compound 0.0316 µM
[8] = second compound 0.1 µM, first compound 0.1 µM
[9] = second compound 0.316 µM, first compound 0.00316 µM
[10] = second compound 0.316 µM, first compound 0.01 µM
[11] = second compound 0.316 µM, first compound 0.0316 µM
[12] = second compound 0.316 µM, first compound 0.1 µM
[13] = second compound 1 µM, first compound 0.00316 µM
[14] = second compound 1 µM, first compound 0.01 µM
[15] = second compound 1 µM, first compound 0.0316 µM
[16] = second compound 1 µM, first compound 0.1 µM
[17] = second compound 3.16 µM, first compound 0.00316 µM
[18] = second compound 3.16 µM, first compound 0.01 µM
[19] = second compound 3.16 µM, first compound 0.0316 µM
[20] = second compound 3.16 µM, first compound 0.1 µM
[21] = second compound 10 µM, first compound 0.00316 µM
[22] = second compound 10 µM, first compound 0.01 µM
[23] = second compound 10 µM, first compound 0.0316 µM
[24] = second compound 10 µM, first compound 0.1 µM
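Also: spheroids exposed to compounds for seven days before readout.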

C=CCn1c(=O)c2cnc(Nc3ccc(N4CCN(C)CC4)cc3)nc2n1-c1cccc(C(C)(C)O)n1 + COC1C(OC(N)=O)C(O)C(Oc2ccc3c(O)c(NC(=O)c4ccc(O)c(CC=C(C)C)c4)c(=O)oc3c2C)OC1(C)C
IC50 (second compound 0.0316 µM): > 1000 nM | IC50 (second compound 0.1 µM): > 1000 nM | IC50 (second compound 0.316 µM): > 1000 nM | IC50 (second compound 1 µM): > 1000 nM | IC50 (second compound 3.16 µM): > 1000 nM | IC50 (second compound 10 µM): > 1000 nM | viability, T/C [1]: 90.6% | viability, T/C [2]: 93.2% | viability, T/C [3]: 96.4% | viability, T/C [4]: 94.5% | viability, T/C (second compound 0.0316 µM, first compound 0.316 µM): 92.1% | viability, T/C (second compound 0.0316 µM, first compound 1 µM): 101% | viability, T/C [5]: 95.9% | viability, T/C [6]: 94.3% | viability, T/C [7]: 91.9% | viability, T/C [8]: 107% | viability, T/C (second compound 0.1 µM, first compound 0.316 µM): 105% | viability, T/C (second compound 0.1 µM, first compound 1 µM): 99.7% | viability, T/C [9]: 98.7% | viability, T/C [10]: 103% | viability, T/C [11]: 95.9% | viability, T/C [12]: 106% | viability, T/C (second compound 0.316 µM, first compound 0.316 µM): 109% | viability, T/C (second compound 0.316 µM, first compound 1 µM): 103% | viability, T/C [13]: 91.5% | viability, T/C [14]: 110% | viability, T/C [15]: 102% | viability, T/C [16]: 98.9% | viability, T/C (second compound 1 µM, first compound 0.316 µM): 103% | viability, T/C (second compound 1 µM, first compound 1 µM): 93.1% | viability, T/C [17]: 107% | viability, T/C [18]: 95.4% | viability, T/C [19]: 94.1% | viability, T/C [20]: 102% | viability, T/C (second compound 3.16 µM, first compound 0.316 µM): 113% | viability, T/C (second compound 3.16 µM, first compound 1 µM): 91.9% | viability, T/C [21]: 105% | viability, T/C [22]: 104% | viability, T/C [23]: 101% | viability, T/C [24]: 96% | viability, T/C (second compound 10 µM, first compound 0.316 µM): 94.2% | viability, T/C (second compound 10 µM, first compound 1 µM): 90%

CC[C@@]1(O)C(=O)OCc2c1cc1n(c2=O)Cc2cc3c(CN(C)C)c(O)ccc3nc2-1 + COC1C(OC(N)=O)C(O)C(Oc2ccc3c(O)c(NC(=O)c4ccc(O)c(CC=C(C)C)c4)c(=O)oc3c2C)OC1(C)C
IC50 (second compound 0.0316 µM): 35.2 nM | IC50 (second compound 0.1 µM): 30.3 nM | IC50 (second compound 0.316 µM): 30.2 nM | IC50 (second compound 1 µM): 27.7 nM | IC50 (second compound 3.16 µM): 23.3 nM | IC50 (second compound 10 µM): 22.5 nM | viability, T/C (second compound 0.0316 µM, first compound 0.000316 µM): 125% | viability, T/C (second compound 0.0316 µM, first compound 0.001 µM): 123% | viability, T/C [1]: 116% | viability, T/C [2]: 126% | viability, T/C [3]: 53.5% | viability, T/C [4]: 14.7% | viability, T/C (second compound 0.1 µM, first compound 0.000316 µM): 108% | viability, T/C (second compound 0.1 µM, first compound 0.001 µM): 111% | viability, T/C [5]: 104% | viability, T/C [6]: 113% | viability, T/C [7]: 47.8% | viability, T/C [8]: 11.8% | viability, T/C (second compound 0.316 µM, first compound 0.000316 µM): 116% | viability, T/C (second compound 0.316 µM, first compound 0.001 µM): 110% | viability, T/C [9]: 122% | viability, T/C [10]: 101% | viability, T/C [11]: 48.2% | viability, T/C [12]: 11.7% | viability, T/C (second compound 1 µM, first compound 0.000316 µM): 116% | viability, T/C (second compound 1 µM, first compound 0.001 µM): 124% | viability, T/C [13]: 112% | viability, T/C [14]: 91.7% | viability, T/C [15]: 44.7% | viability, T/C [16]: 10.6% | viability, T/C (second compound 3.16 µM, first compound 0.000316 µM): 112% | viability, T/C (second compound 3.16 µM, first compound 0.001 µM): 108% | viability, T/C [17]: 109% | viability, T/C [18]: 112% | viability, T/C [19]: 28.4% | viability, T/C [20]: 11.7% | viability, T/C (second compound 10 µM, first compound 0.000316 µM): 117% | viability, T/C (second compound 10 µM, first compound 0.001 µM): 107% | viability, T/C [21]: 117% | viability, T/C [22]: 98.9% | viability, T/C [23]: 29.6% | viability, T/C [24]: 16.2%
